Measurements published in publication PMC2665027 (Biochemistry, 2009).
Changes are numbered by the printed parent chain. Numbers in names are those of the source. Where “and” joins values, the source holds several entries; their conditions need not be identical. Identical values can stand only once. Like-named read-outs stand apart in the source and are kept apart here.

Experiments:
[1] = target: T1, D183N human arginase I (Homo sapiens, UniProt P05089, D183N); test: Isothermal titration calorimetry, D183N human arginase I; assay type: binding
T1 sequence (P05089 1-322 D183N): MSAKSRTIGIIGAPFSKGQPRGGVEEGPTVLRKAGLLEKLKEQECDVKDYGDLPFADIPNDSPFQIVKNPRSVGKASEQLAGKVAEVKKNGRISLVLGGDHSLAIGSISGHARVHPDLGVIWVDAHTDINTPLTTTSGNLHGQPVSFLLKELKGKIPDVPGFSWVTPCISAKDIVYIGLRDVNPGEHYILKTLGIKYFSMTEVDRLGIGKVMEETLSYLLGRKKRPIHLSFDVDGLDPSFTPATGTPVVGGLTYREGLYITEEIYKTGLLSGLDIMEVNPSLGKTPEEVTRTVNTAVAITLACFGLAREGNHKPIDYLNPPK

[2] = target: T2, D183A human arginase I (Homo sapiens, UniProt P05089, D183A); test: Isothermal titration calorimetry, D183A human arginase I; assay type: binding
T2 sequence (P05089 1-322 D183A): T1 sequence (P05089 1-322 D183N) with N183A

[3] = target: wild-type human arginase I; settings: isothermal titration calorimetry; ref [30] and [48]; cited from earlier work
[4] = target: T3, wild-type rat arginase I (Rattus norvegicus, UniProt P07824); settings: ref [14], cited from earlier work
T3 sequence (P07824 1-323): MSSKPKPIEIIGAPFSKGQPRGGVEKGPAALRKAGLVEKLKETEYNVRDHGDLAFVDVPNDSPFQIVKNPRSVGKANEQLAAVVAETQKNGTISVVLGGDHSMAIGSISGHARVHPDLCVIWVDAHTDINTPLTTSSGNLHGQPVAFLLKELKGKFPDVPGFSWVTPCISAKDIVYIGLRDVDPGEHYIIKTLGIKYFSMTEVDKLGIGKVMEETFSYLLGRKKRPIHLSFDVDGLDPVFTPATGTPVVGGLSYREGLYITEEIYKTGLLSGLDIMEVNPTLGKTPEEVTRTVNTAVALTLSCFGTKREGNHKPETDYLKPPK

[5] = target: T4, T135S rat arginase I (Rattus norvegicus, UniProt P07824, T135S); assay type: biochemical
T4 sequence (P07824 1-323 T135S): T3 sequence (P07824 1-323) with T135S

[6] = target: T5, T135A rat arginase I (Rattus norvegicus, UniProt P07824, T135A); test: 14C-urea radioactive arginase assay, T135A rat arginase I; assay type: biochemical
T5 sequence (P07824 1-323 T135A): T3 sequence (P07824 1-323) with T135A

[7] = target: T6, N130A rat arginase I (Rattus norvegicus, UniProt P07824, N130A); test: 14C-urea radioactive arginase assay, N130A rat arginase I; assay type: biochemical
T6 sequence (P07824 1-323 N130A): T3 sequence (P07824 1-323) with N130A

[8] = tested on: rat arginase I; settings: ref [26], cited from earlier work; for diminished catalytic activity based on kcat/KM relative to L-arginine / increased KM value relative to L-arginine: alternative substrate
[9] = tested on: wild-type human arginase I; settings: substrate L-arginine; ref [30] and [48]; cited from earlier work
[10] = target: T1, D183N human arginase I; test: 14C-urea radioactive arginase assay, D183N human arginase I; assay type: biochemical; settings: substrate L-arginine; pH 9.0, room temperature
[11] = tested on: proclavaminic acid amidinohydrolase; settings: ref [54]; cited from earlier work
[12] = target: T2, D183A human arginase I; settings: substrate L-arginine; pH 9.0, room temperature
[13] = tested on: rat arginase I; settings: deletion of the carboxylate group of ABH; ref [28]; cited from earlier work
[14] = substrate: N=C(N)NCCC[C@H](N)C(=O)O; test: 14C-urea radioactive arginase assay, D183A rat arginase I; assay type: biochemical; settings: other: substrate L-arginine, pH 9.0, room temperature
[15] = substrate: N=C(N)NCCC[C@H](N)C(=O)O; test: 14C-urea radioactive arginase assay, T135A rat arginase I; assay type: biochemical; settings: other: substrate L-arginine, pH 9.0, room temperature
[16] = substrate: N=C(N)NCCC[C@H](N)C(=O)O; assay type: biochemical, rat; settings: other: substrate L-arginine, pH 9.0, room temperature
[17] = substrate: N=C(N)NCCC[C@H](N)C(=O)O; test: 14C-urea radioactive arginase assay, N130A rat arginase I; assay type: biochemical; settings: other: substrate L-arginine, pH 9.0, room temperature
[18] = substrate: N=C(N)NCCC[C@H](N)C(=O)O; test: 14C-urea radioactive arginase assay, N130F rat arginase I; assay type: biochemical; settings: other: substrate L-arginine, pH 9.0, room temperature
[19] = substrate: N=C(N)NCCC[C@H](N)C(=O)O; test: 14C-urea radioactive arginase assay, N130Y rat arginase I; assay type: biochemical; settings: other: substrate L-arginine, pH 9.0, room temperature
[20] = progress curves in the presence of 30 µM BEC linear with time

N[C@@H](CCCCB(O)O)C(=O)O [ABH, 2(S)-amino-6-boronohexanoic acid]
Kd [1]: 147 nM | inhibitor binding affinity weakened relative to wild-type ([1]; D183N vs wild-type human arginase I, calorimetric Kd): 29 fold | Kd [2]: 7000 nM | inhibitor binding affinity weakened relative to wild-type ([2]; D183A vs wild-type human arginase I, calorimetric Kd): ~ 1400 fold and 1400 fold | Kd [3]: 5 nM

N[C@@H](CSCCB(O)O)C(=O)O [BEC, S-(2-boronoethyl)-L-cysteine]
inhibitor binding behaviour [4]: slow-binding inhibitor | Ki ([4]; slow-binding kinetics observed, Ki = koff/kon): 400 nM | Ki [5]: 125 nM | koff [5]: 0.00155 s⁻¹ | kon [5]: 12400 M⁻¹ s⁻¹ | inhibitor binding behaviour ([5]; non-linear progress curves in the presence of BEC): slow-binding behavior | Ki [6]: 4500 nM | inhibitor binding behaviour [6, 20]: does not exhibit slow-binding behavior | Ki [7]: 13000 nM | diminished enzyme-inhibitor affinity relative to wild-type ([7]; N130A vs wild-type rat arginase I): ~ 30 fold | inhibitor binding behaviour [7, 20]: no longer a slow-binding inhibitor

NC(N)=NCCC[C@@H](N)C(=O)O [D-arginine]
substrate activity [8]: not a substrate

N=C(N)NCCC[C@H](N)C(=O)O [L-arginine]
Km [9]: 1.5 mM | kcat [9]: 190 s⁻¹ | Km [10]: 40 mM | kcat [10]: 167 s⁻¹ | substrate acceptance [11]: does not accept L-arginine as a substrate | kcat [12]: 68 s⁻¹

NC(N)=NCCC[C@H](O)C(=O)O [L-argininic acid]
diminished catalytic activity based on kcat/KM relative to L-arginine [8]: 3,200 fold | increased KM value relative to L-arginine [8]: 9 fold

NCCCCN=C(N)N [agmatine]
diminished catalytic activity based on kcat/KM relative to L-arginine [8]: 54,000 fold | increased KM value relative to L-arginine [8]: 11 fold

NCCCCCB(O)O [descarboxy-ABH]
loss of inhibitory activity relative to ABH [13]: 1800 fold

B1: D183A rat arginase I (Rattus norvegicus; D183A) (protein)
chain: T3 sequence (P07824 1-323) with D183A
Km [14]: 13.9 mM | kcat [14]: 14.7 s⁻¹ | kcat/Km [14]: 1100 M⁻¹ s⁻¹

B2: T135A rat arginase I (Rattus norvegicus; T135A) (protein)
chain: T3 sequence (P07824 1-323) with T135A
Km [15]: 13 mM | kcat [15]: 260 s⁻¹ | kcat/Km [15]: 20000 M⁻¹ s⁻¹

B3: T135S rat arginase I (Rattus norvegicus; T135S) (protein)
chain: T3 sequence (P07824 1-323) with T135S
Km [16]: 2.5 mM | kcat [16]: 350 s⁻¹ | kcat/Km [16]: 140000 M⁻¹ s⁻¹

B4: N130A rat arginase I (Rattus norvegicus; N130A) (protein)
chain: T3 sequence (P07824 1-323) with N130A
Km [17]: 50 mM | kcat [17]: 220 s⁻¹ | kcat/Km [17]: 4400 M⁻¹ s⁻¹

B5: N130F rat arginase I (Rattus norvegicus; N130F) (protein)
chain: T3 sequence (P07824 1-323) with N130F
Km [18]: 19.3 mM | kcat [18]: 4.8 s⁻¹ | kcat/Km [18]: 250 M⁻¹ s⁻¹

B6: N130Y rat arginase I (Rattus norvegicus; N130Y) (protein)
chain: T3 sequence (P07824 1-323) with N130Y
Km [19]: 21.4 mM | kcat [19]: 17 s⁻¹ | kcat/Km [19]: 790 M⁻¹ s⁻¹
